This is an account of results in patent US20250025459A1, “COVID-19 TREATMENT MEDICINE CHARACTERIZED BY COMBINING 3CL PROTEASE INHIBITOR AND COVID-19 TREATMENT DRUG” (priority 2021, published 2025).

Where two headings read alike, the source gives them in different places.

For one test, the target named is SARS-CoV-2 3CL Protease (Severe acute respiratory syndrome coronavirus 2 (2019-nCoV) (SARS-CoV-2), UniProt P0DTD1). Kind of test: biochemical. The format is biochemical.
A further test relates to SARS-CoV-2. The experiment in a line: microbe, parasite or virus in culture. The test is classed as cell-based. The settings on record: Severe acute respiratory syndrome coronavirus 2, 72 h; VeroE6/TMPRSS2 cells, 100 TCID50/well, 3 days; class symbols.
In test [1] the test system is SARS-CoV-2 hCoV-19/Japan/TY11-927-P1/2021. Kind of test: Combination effect confirmation test, VeroE6/TMPRSS2 cells, strain TY11-927-P1. The test is classed as cell-based. The settings on record: for EC50 of single agent: VeroE6/TMPRSS2, 3 days; for EC50: Severe acute respiratory syndrome coronavirus 2, VeroE6/TMPRSS2, 72 h, single agent.
Test [2] has as its system SARS-CoV-2 hCoV-19/Japan/TY/WK-521/2020. The experiment in a line: Combination effect confirmation test, VeroE6/TMPRSS2 cells, strain WK-521. The format is cell-based. The note with it: for EC50 of single agent: VeroE6/TMPRSS2, 3 days.
Test [3] deals with SARS-CoV-2 hCoV-19/Japan/TY7-501/2021. The experiment in a line: Combination effect confirmation test, VeroE6/TMPRSS2 cells, strain TY7-501. The format is cell-based.
Where [4] appears, read: recombinant enzyme, RapidFire MS, class symbols, read-out: IC50.
Setting [5] is: single agent, hCoV-19/Japan/TY/WK-521/2020.
Where [6] appears, read: Severe acute respiratory syndrome coronavirus 2, 72 h, single agent, hCoV-19/Japan/TY/WK-521/2020, VeroE6/TMPRSS2, 1000 TCID50/well, 3 days.
The mark [7] stands for this setting: Severe acute respiratory syndrome coronavirus 2, VeroE6/TMPRSS2, 72 h, single agent, hCoV-19/Japan/TY7-501/2021, […].
The mark [8] stands for this setting: read-out: 50% SARS-CoV-2 3CL protease inhibitory concentration (IC50).

Consider `Cc1cc2nn(C)cc2cc1Nc1nc(=O)n(-c2cncc3ccccc23)c(=O)n1Cc1cc(F)c(F)c(F)c1` [Compound I-013], for which, on SARS-CoV-2 3CL Protease (setting [4]), the IC50 is below 100 nM. Moreover, the EC50 with SARS-CoV-2 lay within 1000 to 10000 nM.

`Cn1cnc(Cn2c(=O)nc(Nc3cc4cn(C(F)F)nc4cc3Cl)n(Cc3cc(F)c(F)c(F)c3)c2=O)n1` [Compound I-030] gave a 50% effective concentration (EC50) in the test on SARS-CoV-2 of 1000 to 10000 nM.

Turning to “Bebtelovimab: anti-SARS-CoV-2 monoclonal antibody”, in test [1], the “EC50 of single agent” value was 0.0231(μg/mL).

For “Casirivimab: anti-SARS-CoV-2 monoclonal antibody”, the “EC50 of single agent” value in test [2] (setting [5]) is 0.077 [μg/mL].

`Cn1cnc(Cn2c(=O)nc(Nc3cc4cn(C)nc4cc3Cl)n(Cc3cc(F)c(F)c(F)c3)c2=O)n1` [Compound I-021] gave an EC50 with SARS-CoV-2 below 1000 nM.

For `Cc1cncc(-n2c(=O)nc(Nc3cc4cn(C(F)F)nc4cc3Cl)n(Cc3ccc(F)c(C#N)c3)c2=O)c1` [Compound I-026], the concentration giving a half-maximal response (EC50) in the test with SARS-CoV-2 was below 1000 nM.

In the case of `Cc1nc2cc(Cl)c(Nc3nc(=O)n(Cc4ncn(C)n4)c(=O)n3Cc3cc(F)c(F)c(F)c3)cc2n1C` [Compound I-022], the EC50 with SARS-CoV-2 fell in the range of 1000 to 10000 nM.

Consider “Imdevimab: anti-SARS-CoV-2 monoclonal antibody”, for which the “EC50 of single agent” value in test [2] (setting [5]) is 0.047 [μg/mL].

For `N#Cc1cc(Cn2c(Nc3cc4cn(C(F)F)nc4cc3Cl)nc(=O)n(-c3cncc4ccccc34)c2=O)ccc1F` [Compound I-024], the EC50 with SARS-CoV-2 is below 1000 nM.

The compound `Cn1cc2cc(Nc3nc(=O)n(-c4cncc5ccccc45)c(=O)n3Cc3cc(F)c(F)c(F)c3)c(Cl)cc2n1` [Compound I-014] registered an EC50 in the test on SARS-CoV-2 below 1000 nM.

“Sotrovimab: anti-SARS-CoV-2 monoclonal antibody”: the “EC50 of single agent” value in test [1] was 1.06(μg/mL).

With `Cn1cnc(Cn2c(=O)nc(Nc3cc4cn(CCO)nc4cc3Cl)n(Cc3cc(F)c(F)c(F)c3)c2=O)n1` [Compound I-028], in the test with SARS-CoV-2, the EC50 was in the range of 1000 to 10000 nM.

As for `N#Cc1cc(Cn2c(Nc3ccc4nn(CC(F)F)cc4c3)nc(=O)n(-c3cncc4ccccc34)c2=O)ccc1F` [Compound I-009], the EC50 in the test on SARS-CoV-2 was below 1000 nM.

In the test with SARS-CoV-2, `Cn1cc2cc(Nc3nc(=O)n(-c4cncc5ccccc45)c(=O)n3Cc3cc(F)c(F)c(F)c3)ccc2n1` [Compound I-016] registered an EC50 below 1000 nM.

For `Cn1cc2cc(Nc3nc(=O)n(-c4cncc5ccccc45)c(=O)n3Cc3ccc(F)c(C#N)c3)c(F)cc2n1` [Compound I-025], the 50% effective concentration (EC50) with SARS-CoV-2 is below 1000 nM.

In turn, `O=c1nc(Nc2ccc3nn(CC(F)F)cc3c2)n(Cc2cc(F)c(F)c(F)c2)c(=O)n1-c1cncc2ccccc12` [Compound I-034] registered an EC50 with SARS-CoV-2 below 1000 nM.

As for `CC(C)(C)[C@H](NC(=O)C(F)(F)F)C(=O)N1C[C@H]2[C@@H]([C@H]1C(=O)N[C@H](C#N)C[C@@H]1CCNC1=O)C2(C)C` [PF-07321332, reference compound], in test [2] (setting [6]), the EC50 was 7100 nM.

Consider `Cn1cnc(Cn2c(=O)[nH]/c(=N\c3cc4cn(C)nc4cc3Cl)n(Cc3cc(F)c(F)cc3F)c2=O)n1`, for which the EC50 in test [2] (setting [6]) came out at 370 nM; in test [1], 410 nM; in test [3] (setting [7]), 500 nM.

Take `O=c1nc(Nc2cc3cn(CCN4CCOCC4)nc3cc2Cl)n(Cc2cc(F)c(F)c(F)c2)c(=O)n1-c1cncc2ccccc12` [Compound I-020]: the EC50 in the test with SARS-CoV-2 was 1000 to 10000 nM.

For `Cc1nc2cc(Cl)c(Nc3nc(=O)n(-c4cncc5ccccc45)c(=O)n3Cc3cc(F)c(F)c(F)c3)cc2n1C` [Compound I-032], the IC50 on SARS-CoV-2 3CL Protease (setting [4]) is below 100 nM. In the test with SARS-CoV-2, this compound displayed a 50% effective concentration (EC50) of 1000 to 10000 nM.

Take `Cn1cnc(Cn2c(=O)nc(Nc3cc4cn(CC(F)F)nc4cc3Cl)n(Cc3cc(F)c(F)c(F)c3)c2=O)n1` [Compound I-029]: in the test on SARS-CoV-2, the EC50 was below 1000 nM.

Turning to `CN(C)C(=O)COC(=O)Cc1ccc(OC(=O)c2ccc(NC(=N)N)cc2)cc1` [Camostatmesylate, reference compound], the half-maximal effective concentration (EC50) in test [2] (setting [6]) was determined as 1300 nM.

Regarding `Cc1cncc(-n2c(=O)nc(Nc3cc4cn(C)nc4cc3Cl)n(Cc3cc(F)c(F)c(F)c3)c2=O)c1` [Compound I-003], the half-maximal effective concentration (EC50) in test [2] (setting [6]) worked out at 177 nM. Also, the IC50 at SARS-CoV-2 3CL Protease (setting [8]) was 14 nM.

Consider `Cc1cncc(-n2c(=O)nc(Nc3cc4cn(C)nc4cc3C)n(Cc3ccc(F)c(C#N)c3)c2=O)c1` [Compound I-019], for which the EC50 in the test on SARS-CoV-2 is below 1000 nM.

In the test on SARS-CoV-2, `Cn1cc2cc(Nc3nc(=O)n(-c4cncc5ccccc45)c(=O)n3Cc3ccc(F)c(C#N)c3)c(Cl)cc2n1` [Compound I-015] registered an EC50 below 1000 nM.

With `Cc1cncc(-n2c(=O)nc(Nc3cc4cn(C)nc4cc3C)n(Cc3cc(F)c(F)c(F)c3)c2=O)c1` [Compound I-004], in the test on SARS-CoV-2, the EC50 lay within 1000 to 10000 nM.

For the compound `Cc1cncc(-n2c(=O)nc(Nc3cc4cn(C)nc4cc3F)n(Cc3cc(F)c(F)c(F)c3)c2=O)c1` [Compound I-002], in the test with SARS-CoV-2, the EC50 was below 1000 nM.

Turning to `Cc1cncc(-n2c(=O)nc(Nc3cc4cn(C)nc4cc3Cl)n(Cc3cc(F)c(F)cc3F)c2=O)c1` [Compound I-012], the IC50 at SARS-CoV-2 3CL Protease (setting [8]) was found to be 9.1 nM.

Regarding `CCC(CC)COC(=O)[C@H](C)N[P@](=O)(OC[C@H]1O[C@@](C#N)(c2ccc3c(N)ncnn23)[C@H](O)[C@@H]1O)Oc1ccccc1` [Remdesivir, reference compound], the concentration giving a half-maximal response (EC50) in test [2] (Severe acute respiratory syndrome coronavirus 2, VeroE6/TMPRSS2, 72 h, single agent, hCoV-19/Japan/TY/WK-521/2020, […]) is 2500 nM; in test [1] it was 2000 nM; in test [3] (setting [7]) it was 2300 nM.

For `Cc1cc2nn(C)cc2cc1Nc1nc(=O)n(-c2cncc3ccccc23)c(=O)n1Cc1ccc(F)c(C#N)c1` [Compound I-027], the half-maximal effective concentration (EC50) with SARS-CoV-2 was below 1000 nM.

With `O=c1nc(NO)ccn1[C@@H]1O[C@H](CO)[C@@H](O)[C@H]1O` [EIDD-1931, reference compound], the values for the EC50 in test [2] (read-out: EC50 of single agent) and in test [3] (read-out: EC50 of single agent) were 690 nM and 1500 nM, respectively.

In the test with SARS-CoV-2, `CC(=O)NCCn1cc2cc(Nc3nc(=O)n(-c4cncc5ccccc45)c(=O)n3Cc3cc(F)c(F)c(F)c3)c(Cl)cc2n1` [Compound I-033] came in with a concentration for a half-maximal effect (EC50) of 1000 to 10000 nM.

As for `N#Cc1cc(Cn2c(Nc3cc4cn(CCO)nc4cc3Cl)nc(=O)n(-c3cncc4ccccc34)c2=O)ccc1F` [Compound I-031], the IC50 on SARS-CoV-2 3CL Protease (setting [4]) was below 100 nM. The compound further had an EC50 in the test on SARS-CoV-2 of 1000 to 10000 nM.

For the compound `Cc1cncc(-n2c(=O)nc(Nc3ccc4nn(CC(F)F)cc4c3)n(Cc3ccc(F)c(C#N)c3)c2=O)c1` [Compound I-011], the EC50 in the test on SARS-CoV-2 was below 1000 nM.

In the test on SARS-CoV-2, `Cc1cncc(-n2c(=O)nc(Nc3cc4cn(C)nc4cc3F)n(Cc3ccc(F)c(C#N)c3)c2=O)c1` [Compound I-018] had a concentration for a half-maximal effect (EC50) below 1000 nM.

For orientation: EC50 means the concentration needed to bring the measured effect to its halfway point.
